This assay addresses human active recombinant p38α-6His tagged (Homo sapiens, UniProt Q16539). Put plainly: P38 Alpha Enzyme Assay (AlphaScreen, biotinylated-ATF2 substrate).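 Note: 0.5 nM final p38α, reaction started with ATP and run 45 min at 37 °C, phospho-ATF2 read by antibody-based AlphaScreen, background wells quenched with EDTA before ATP.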 The assay is classed as biochemical. The following applies: p38 alpha enzyme inhibition; means of replicate determinations; 4 h pre-incubation at 37° C.; SD of assay 0.2-0.3 log units.

The term pIC50 denotes the negative decadic logarithm of the IC50, by convention in mol/L.

Sequence of human active recombinant p38α-6His tagged (Q16539 whole entry): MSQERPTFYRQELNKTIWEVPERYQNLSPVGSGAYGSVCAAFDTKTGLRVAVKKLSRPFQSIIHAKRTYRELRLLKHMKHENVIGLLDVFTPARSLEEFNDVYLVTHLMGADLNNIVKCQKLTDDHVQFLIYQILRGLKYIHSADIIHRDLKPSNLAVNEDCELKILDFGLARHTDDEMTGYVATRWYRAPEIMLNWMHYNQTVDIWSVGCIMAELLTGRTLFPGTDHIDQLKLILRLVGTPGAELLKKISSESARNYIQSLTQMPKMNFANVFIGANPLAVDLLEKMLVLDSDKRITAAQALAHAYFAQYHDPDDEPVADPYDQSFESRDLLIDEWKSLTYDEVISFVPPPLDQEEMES

On to `CCNCCOc1ccccc1C1(Nc2nccn(-c3cc(C(=O)NC4CC4)ccc3C)c2=O)CCC1` [Example 269, N-Cyclopropyl-3-[3-[[1-[2-[2-(ethylamino)ethoxy]phenyl]cyclobutyl]amino]-2-oxo-1(2H)-pyrazinyl]-4-methyl-benzamide], for which the pIC50 was determined as 9.9.
The value for `Cc1ccc(C(=O)NC2CC2)cc1-n1ccnc(N2CCCC(c3ccccc3)C2)c1=O` (stereo not drawn) [Example 60, N-Cyclopropyl-4-methyl-3-[2-oxo-3-(3-phenyl-1-piperidinyl)-1(2H)-pyrazinyl]-benzamide] was 7.3.
On to `Cc1ccc(C)c(CNc2nccn(-c3cc(C(=O)NC4CC4)ccc3C)c2=O)c1` [Example 98, N-Cyclopropyl-3-[3-[[(2,5-dimethylphenyl)methyl]amino]-2-oxo-1(2H)-pyrazinyl]-4-methyl-benzamide], for which the negative-log IC50 (pIC50) was 7.8.
Take `Cc1ccc(C(=O)NC2CC2)cc1-n1ccnc(NC(C)(C)c2ccccc2OCC2CCCNC2)c1=O` (stereo not drawn) [Example 218, N-Cyclopropyl-4-methyl-3-[3-[[1-methyl-1-[2-(3-piperidinylmethoxy)phenyl]ethyl]amino]-2-oxo-1(2H)-pyrazinyl]-benzamide]: the negative logarithm of the IC50 (pIC50) was determined as 9.1.
In the case of `Cc1ccccc1[C@H](Nc1nccn(-c2cc(C(=O)NC3CC3)ccc2C)c1=O)[C@@H](C)CO` [Example 272, N-Cyclopropyl-3-[3-[[(1R,2R)-3-hydroxy-1-(2-methylphenyl)-2-methylpropyl]amino]-2-oxo-1(2H)-pyrazinyl]-4-methyl-benzamide], the pIC50 is 8.5.
With `CONC(=O)c1ccc(C)c(-n2ccnc(N[C@@H](c3ccccc3)[C@@H](C)CN3CCOCC3)c2=O)c1` [Example 160, N-Methoxy-4-methyl-3-[3-[[(1R,2S)-2-methyl-3-(4-morpholinyl)-1-phenylpropyl]amino]-2-oxo-1(2H)-pyrazinyl]-benzamide], the pIC50 is listed as 9.8.
For `CNCCOc1ccccc1C(C)(C)Nc1nccn(-c2cc(C(N)=O)ccc2C)c1=O` [Example 229, 4-Methyl-3-[3-[[1-methyl-1-[2-[2-(methylamino)ethoxy]phenyl]ethyl]amino]-2-oxo-1(2H)-pyrazinyl]benzamide], the pIC50 was 8.6.
The value for `Cc1ccc(C(=O)NC2CC2)cc1-n1ccnc(NC2(c3ccccc3OCCNC3CCS(=O)(=O)C3)CC2)c1=O` (stereo not drawn) [Example 295, N-Cyclopropyl-3-[3-{[1-(2-{2-[(1,1-dioxidotetrahydrothiophen-3-yl)amino]ethoxy}phenyl)cyclopropyl]amino}-2-oxopyrazin-1(2H)-yl]-4-methylbenzamide] was 9.5.
For the compound `CNCCOc1ccccc1C1(Nc2nccn(-c3cc(C(=O)NC4CC4)ccc3C)c2=O)CCC1` [Example 268, N-Cyclopropyl-4-methyl-3-[3-[[1-[2-[2-(methylamino)ethoxy]phenyl]cyclobutyl]amino]-2-oxo-1(2H)-pyrazinyl]-benzamide], the pIC50 is listed as 10.
For `COC[C@H]1CCCN1C[C@@H](C)[C@@H](Nc1nccn(-c2cc(C(=O)NC3CC3)ccc2C)c1=O)c1ccccc1` [Example 148, N-Cyclopropyl-3-[3-[[(1R,2R)-3-[(2R)-2-(methoxymethyl)-1-pyrrolidinyl]-2-methyl-1-phenylpropyl]amino]-2-oxo-1(2H)-pyrazinyl]-4-methyl-benzamide], the pIC50 was 8.1.
In the case of `Cc1ccc(C(=O)NC2CC2)cc1-n1ccnc(NC2(c3cccc(F)c3OCCNC[C@@H](C)O)CC2)c1=O` [Example 283, N-Cyclopropyl-3-[3-({1-[3-fluoro-2-(2-{[(2R)-2-hydroxypropyl]amino}ethoxy)phenyl]cyclopropyl}amino)-2-oxopyrazin-1(2H)-yl]-4-methylbenzamide], the negative-log IC50 (pIC50) amounted to 9.7.
In the case of `Cc1ccc(C(=O)NC2CC2)cc1-n1ccnc(NCc2ccc(F)cc2)c1=O` [Example 33, N-Cyclopropyl-3-[3-[[(4-fluorophenyl)methyl]amino]-2-oxo-1(2H)-pyrazinyl]-4-methyl-benzamide] it was 7.5; in that of `CNCCSc1ccccc1C(C)(C)Nc1nccn(-c2cc(C(=O)NC3CC3)cc(F)c2C)c1=O` [Example 320, N-Cyclopropyl-3-fluoro-4-methyl-5-[3-{[1-methyl-1-(2-{[2-(methylamino)ethyl]sulfanyl}phenyl)ethyl]amino}-2-oxopyrazin-1(2H)-yl]benzamide], 9.5; in that of `Cc1ccc(C(=O)NC2CC2)cc1-n1ccnc(N[C@@H](c2ccccc2)[C@@H](C)CN2C[C@@H](C)N[C@@H](C)C2)c1=O` [Example 194, N-Cyclopropyl-3-[3-[[(1R,2S)-3-[(3R,5S)-3,5-dimethyl-1-piperazinyl]-2-methyl-1-phenylpropyl]amino]-2-oxo-1(2H)-pyrazinyl]-4-methyl-benzamide], 9.1.
In the case of `CCc1ccc(C(=O)NC2CC2)cc1-n1ccnc(NC(C)(C)c2ccccc2OCCNC)c1=O` [Example 288, N-Cyclopropyl-4-ethyl-3-{3-[(1-methyl-1-{2-[2-(methylamino)ethoxy]phenyl}ethyl)amino]-2-oxopyrazin-1(2H)-yl}benzamide] it was 8.4.
In the case of `Cc1ccc(C(=O)NC2CC2)cc1-n1ccnc(N2CCOC(c3ccccc3)C2)c1=O` (stereo not drawn) [Example 67, N-Cyclopropyl-4-methyl-3-[2-oxo-3-(2-phenyl-4-morpholinyl)-1(2H)-pyrazinyl]-benzamide] it was 6.6.
Take `Cc1ccc(C(=O)NC2CC2)cc1-n1ccnc(NC(CCO)c2ccccc2)c1=O` (stereo not drawn) [Example 83, N-Cyclopropyl-3-[3-[(3-hydroxy-1-phenylpropyl)amino]-2-oxo-1(2H)-pyrazinyl]-4-methyl-benzamide]: the pIC50 is 7.7.
Turning to `Cc1ccc(C(=O)NC2CC2)cc1-n1ccnc(N[C@@H](c2ccccc2)[C@@H](C)CN2CCC(CO)CC2)c1=O` [Example 151, N-Cyclopropyl-3-[3-[[(1R,2S)-3-[4-(hydroxymethyl)-1-piperidinyl]-2-methyl-1-phenylpropyl]amino]-2-oxo-1(2H)-pyrazinyl]-4-methyl-benzamide], the pIC50 turned out to be 9.1.
For `Cc1ccc(C(=O)NC2CC2)cc1-n1ccnc(N[C@@H](c2ccccc2)[C@@H](C)CN2CCC(N(C)C)CC2)c1=O` [Example 176, N-Cyclopropyl-3-[3-[[(1R,2S)-3-[4-(dimethylamino)-1-piperidinyl]-2-methyl-1-phenylpropyl]amino]-2-oxo-1(2H)-pyrazinyl]-4-methyl-benzamide], the negative logarithm of the IC50 (pIC50) came to 8.7.
`Cc1ccc(C(=O)NC2CC2)cc1-n1ccnc(NC2(c3ccccc3OCCNCCF)CC2)c1=O` [Example 245, N-Cyclopropyl-3-[3-[[1-[2-[2-[(2-fluoroethyl)amino]ethoxy]phenyl]cyclopropyl]amino]-2-oxo-1(2H)-pyrazinyl]-4-methyl-benzamide]: the pIC50 is 9.5.
With `Cc1ccc(C(=O)NC2CC2)cc1-n1ccnc(N[C@@H](c2cccc3ccccc23)[C@@H](C)CN2CCCC2)c1=O` [Example 144, N-Cyclopropyl-4-methyl-3-[3-[[(1R,2S)-2-methyl-1-(1-naphthalenyl)-3-(1-pyrrolidinyl)propyl]amino]-2-oxo-1(2H)-pyrazinyl]-benzamide], the pIC50 stood at 7.9.
The value for `CNCCOc1ccccc1C(C)(C)Nc1nccn(-c2cc(C(=O)NC(C)C)ccc2C)c1=O` [Example 223, 4-Methyl-N-(1-methylethyl)-3-[3-[[1-methyl-1-[2-[2-(methylamino)ethoxy]phenyl]ethyl]amino]-2-oxo-1(2H)-pyrazinyl]-benzamide] was 8.1; that for `CNCCOc1ccccc1C(C)(C)Nc1nccn(-c2cc(C(=O)NCCO)ccc2C)c1=O` [Example 228, N-(2-Hydroxyethyl)-4-methyl-3-[3-[[1-methyl-1-[2-[2-(methylamino)ethoxy]phenyl]ethyl]amino]-2-oxo-1(2H)-pyrazinyl]-benzamide] was 6.8.
Regarding `CONC(=O)c1ccc(C)c(-n2ccnc(NCc3ccccc3CN3CCN(C)CC3)c2=O)c1` [Example 111, N-Methoxy-4-methyl-3-[3-[[[2-[(4-methyl-1-piperazinyl)methyl]phenyl]methyl]amino]-2-oxo-1(2H)-pyrazinyl]-benzamide], the pIC50 amounted to 7.1.
The value for `Cc1ccc(C(=O)NC2CC2)cc1-n1ccnc(N[C@@H](c2ccccc2)[C@@H](C)CN2CCC(C)CC2)c1=O` [Example 170, N-Cyclopropyl-4-methyl-3-[3-[[(1R,2S)-2-methyl-3-(4-methyl-1-piperidinyl)-1-phenylpropyl]amino]-2-oxo-1(2H)-pyrazinyl]-benzamide] was 8.9.
The value for `Cc1ccccc1CCNc1nccn(-c2cc(C(=O)NC3CC3)ccc2C)c1=O` [Example 72, N-Cyclopropyl-4-methyl-3-[3-[[2-(2-methylphenyl)ethyl]amino]-2-oxo-1(2H)-pyrazinyl]-benzamide] was 7.2.
For the compound `Cc1ccc(C(=O)NC2CC2)cc1-n1ccnc(N[C@@H](c2ccccc2)[C@@H](C)CN2CC3CC2CN3C)c1=O` (stereo partly drawn) [Example 196, N-Cyclopropyl-4-methyl-3-[3-[[(1R,2S)-2-methyl-3-(5-methyl-2,5-diazabicyclo[2.2.1]hept-2-yl)-1-phenylpropyl]amino]-2-oxo-1(2H)-pyrazinyl]-benzamide], the pIC50 turned out to be 8.9.
For the compound `Cc1ccc(C(=O)NC2CC2)cc1-n1ccnc(N2CCN(CCN3CCCC3)C(c3ccccc3)C2)c1=O` (stereo not drawn) [Example 123, N-Cyclopropyl-4-methyl-3-[2-oxo-3-[3-phenyl-4-[2-(1-pyrrolidinyl)ethyl]-1-piperazinyl]-1(2H)-pyrazinyl]-benzamide], the pIC50 was 7.
The value for `Cc1cccc(C2CCCCN2c2nccn(-c3cc(C(=O)NC4CC4)ccc3C)c2=O)c1` (stereo not drawn) [Example 94, N-Cyclopropyl-4-methyl-3-[3-[2-(3-methylphenyl)-1-pipendinyl]-2-oxo-1(2H)-pyrazinyl]-benzamide] was 7.5; that for `Cc1ccc(C(=O)NC2CC2)cc1-n1ccnc(N[C@@H](c2ccccc2)C2CCN(C(=O)OCc3ccccc3)CC2)c1=O` [Example 102, 4-[(R)-[[4-[5-[(Cyclopropylamino)carbonyl]-2-methylphenyl]-3,4-dihydro-3-oxopyrazinyl]amino]phenylmethyl]-1-piperidinecarboxylic acid, phenylmethyl ester] was 6.3.

Source of the values: patent US20120214822A1 (ASTRAZENECA AB, priority 2007, published 2012).
